PF50 data for 29 compounds are collected here from patent publication US9187497B2, “Substituted pyrido[3,2-e]pyrrolo[1,2-a]pyrazines as inhibitors of poly(ADP-ribose)polymerase (PARP)” (Takeda Phamaceutical Company Limited, priority 2009, dated 2015).

Each structure is given as a SMILES string.

The experiment concerns Jurkat cell line. In words: PARP cellular chemopotentiation assay (MTS cell viability with and without TMZ). The format is cell-based. Conditions: ratio of EC50 for inhibition of cell viability without and with 100 μM TMZ; Jurkat cells, 96 hours of treatment. How it is done:
Potentiation Factor (PF50) Determination from PARP Cellular Chemopotentiation Assay
Jurkat cell line was maintained according to the supplier (American Type Culture Collection (Rockville, Md.)). Cells were seeded in 96-well tissue culture microplates at 10,000 cells per well and cultured for 24 hours prior to addition of compounds, TMZ (Temozolomide) or DMSO (dimethylsulfoxide) vehicle. After 96 hours of treatment, the conversion of MTS ([3-(4,5-dimethylthiazol-2-yl)-5-(3-carboxymethoxyphenyl)-2-(4-sulfophenyl)-2H-tetrazolium, inner salt], Promega, Madison, Wis.) by metabolically active cells was determined through measuring the OD490 nm with a Spectramax microplate reader (Molecular Devices, San Diego, Calif.). To generate concentration-response curves, cells were treated in duplicate with a range of serial compound dilutions (final DMSO concentration was 0.5%) in the absence or presence of 100 μM TMZ chemoreagent. The percentage of viable cells per well was calculated by correction for background and normalizing against DMSO-treated cells. EC50 values for inhibition of cell viability were calculated using XLfit4 MicroSoft Excel curve-fitting software. Chemopotentiation factor PF50 was calculated as the ratio of EC50 values of cells co-treated without and with TMZ, respectively.
`CCOC(=O)c1ccc(N2CCN(Cc3cnc4c(c3)NC(=O)[C@@H]3CCCN43)CC2)nc1` [Compound 6A, (S)-ethyl 6-(4-((6-oxo-5,6,6a,7,8,9-hexahydropyrido[3,2-e]pyrrolo[1,2-a]pyrazin-3-yl)methyl)piperazin-1-yl)nicotinate]: the PF50 entry is recorded as “≧0”.
To `CCNC(=O)c1ccc(N2CCN(Cc3cnc4c(c3)NC(=O)[C@@H]3CCCN43)CC2)nc1` [Compound 7, (S)—N-ethyl-6-(4-((6-oxo-5,6,6a,7,8,9-hexahydropyrido[3,2-e]pyrrolo[1,2-a]pyrazin-3-yl)methyl)piperazin-1-yl)nicotinamide] belongs over 10; to `O=C(NC1CC1)c1ccc(N2CCN(Cc3cnc4c(c3)NC(=O)[C@@H]3CCCN43)CC2)nc1` [Compound 8, (S)—N-cyclopropyl-6-(4-((6-oxo-5,6,6a,7,8,9-hexahydropyrido[3,2-e]pyrrolo[1,2-a]pyrazin-3-yl)methyl)piperazin-1-yl)nicotinamide], over 10.
`CC(C)NC(=O)c1ccc(N2CCN(Cc3cnc4c(c3)NC(=O)[C@@H]3CCCN43)CC2)nc1` [Compound 9, (S)—N-isopropyl-6-(4-((6-oxo-5,6,6a,7,8,9-hexahydropyrido[3,2-e]pyrrolo[1,2-a]pyrazin-3-yl)methyl)piperazin-1-yl)nicotinamide]: the PF50 result was “≧0”.
In the case of `O=C1Nc2cc(CN3CCN(c4ccc(F)cc4F)CC3)cnc2N2CCC[C@@H]12` [Compound 15, (S)-3-((4-(2,4-difluorophenyl)piperazin-1-yl)methyl)-6a,7,8,9-tetrahydropyrido[3,2-e]pyrrolo[1,2-a]pyrazin-6(5H)-one], the PF50 was over 500.
With `N#Cc1ccc(N2CCN(Cc3cnc4c(c3)NC(=O)[C@@H]3CCCN43)CC2)c(F)c1F` [Compound 18, (S)-2,3-difluoro-4-(4-((6-oxo-5,6,6a,7,8,9-hexahydropyrido[3,2-e]pyrrolo[1,2-a]pyrazin-3-yl)methyl)piperazin-1-yl)benzonitrile], the PF50 is over 10.
With `N#Cc1c(F)cc(N2CCN(Cc3cnc4c(c3)NC(=O)[C@@H]3CCCN43)CC2)cc1F` [Compound 19, (S)-2,6-difluoro-4-(4-((6-oxo-5,6,6a,7,8,9-hexahydropyrido[3,2-e]pyrrolo[1,2-a]pyrazin-3-yl)methyl)piperazin-1-yl)benzonitrile], the PF50 entry was “≧0”.
Take `N#Cc1cc(F)c(N2CCN(Cc3cnc4c(c3)NC(=O)[C@@H]3CCCN43)CC2)c(F)c1` [Compound 20, (S)-3,5-difluoro-4-(4-((6-oxo-5,6,6a,7,8,9-hexahydropyrido[3,2-e]pyrrolo[1,2-a]pyrazin-3-yl)methyl)piperazin-1-yl)benzonitrile]: the PF50 result was “≧0”.
For `N#Cc1ncc(N2CCN(Cc3cnc4c(c3)NC(=O)[C@@H]3CCCN43)CC2)cc1F` [Compound 22, (S)-3-fluoro-5-(4-((6-oxo-5,6,6a,7,8,9-hexahydropyrido[3,2-e]pyrrolo[1,2-a]pyrazin-3-yl)methyl)piperazin-1-yl)picolinonitrile], the PF50 is given as over 10.
Consider `O=C1Nc2cc(CN3CCN(c4ccccc4)CC3)cnc2N2CCC[C@@H]12` [Compound 23, (S)-3-((4-phenylpiperazin-1-yl)methyl)-6a,7,8,9-tetrahydropyrido[3,2-e]pyrrolo[1,2-a]pyrazin-6(5H)-one], for which the PF50 entry is reported as “≧0”.
Take `CC(=O)c1ccc(N2CCN(Cc3cnc4c(c3)NC(=O)[C@@H]3CCCN43)CC2)cc1` [Compound 25, (S)-3-((4-(4-acetylphenyl)piperazin-1-yl)methyl)-6a,7,8,9-tetrahydropyrido[3,2-e]pyrrolo[1,2-a]pyrazin-6(5H)-one]: the PF50 result is listed as “≧0”.
To `O=C1Nc2cc(CN3CCN(c4ccccn4)CC3)cnc2N2CCC[C@@H]12` [Compound 26, (S)-3-((4-(pyridin-2-yl)piperazin-1-yl)methyl)-6a,7,8,9-tetrahydropyrido[3,2-e]pyrrolo[1,2-a]pyrazin-6(5H)-one] belongs over 10; to `COc1ccc(N2CCN(Cc3cnc4c(c3)NC(=O)[C@@H]3CCCN43)CC2)cc1` [Compound 31, (S)-3-((4-(4-methoxyphenyl)piperazin-1-yl)methyl)-6a,7,8,9-tetrahydropyrido[3,2-e]pyrrolo[1,2-a]pyrazin-6(5H)-one], “≧0”.
On to `Cc1ccc(N2CCN(Cc3cnc4c(c3)NC(=O)[C@@H]3CCCN43)CC2)cc1` [Compound 32, (S)-3-((4-p-tolylpiperazin-1-yl)methyl)-6a,7,8,9-tetrahydropyrido[3,2-e]pyrrolo[1,2-a]pyrazin-6(5H)-one], for which the PF50 entry is on record as “≧0”.
To `O=C1Nc2cc(CN3CCN(c4cccc(O)c4)CC3)cnc2N2CCC[C@@H]12` [Compound 34, (S)-3-((4-(3-hydroxyphenyl)piperazin-1-yl)methyl)-6a,7,8,9-tetrahydropyrido[3,2-e]pyrrolo[1,2-a]pyrazin-6(5H)-one] belongs “≧0”.
To `O=C1Nc2cc(CN3CCN(c4ccc(O)cc4)CC3)cnc2N2CCC[C@@H]12` [Compound 35, (S)-3-((4-(4-hydroxyphenyl)piperazin-1-yl)methyl)-6a,7,8,9-tetrahydropyrido[3,2-e]pyrrolo[1,2-a]pyrazin-6(5H)-one] belongs “≧0”.
Regarding `O=C1Nc2cc(CN3CCN(c4ccc(C(F)(F)F)cn4)CC3)cnc2N2CCC[C@@H]12` [Compound 36, (S)-3-((4-(5-(trifluoromethyl)pyridin-2-yl)piperazin-1-yl)methyl)-6a,7,8,9-tetrahydropyrido[3,2-e]pyrrolo[1,2-a]pyrazin-6(5H)-one], the PF50 result is “≧0”.
Take `O=C1Nc2cc(CN3CCN(c4cccc(F)c4)CC3)cnc2N2CCC[C@@H]12` [Compound 38, (S)-3-((4-(3-fluorophenyl)piperazin-1-yl)methyl)-6a,7,8,9-tetrahydropyrido[3,2-e]pyrrolo[1,2-a]pyrazin-6(5H)-one]: the PF50 result was “≧0”.
`O=C1Nc2cc(CN3CCN(c4nc5ccccc5[nH]4)CC3)cnc2N2CCC[C@@H]12` [Compound 39, (S)-3-((4-(1H-benzo[d]imidazol-2-yl)piperazin-1-yl)methyl)-6a,7,8,9-tetrahydropyrido[3,2-e]pyrrolo[1,2-a]pyrazin-6(5H)-one]: the PF50 result is “≧0”.
With `O=C1Nc2cc(CN3CCN(c4ccc(I)cc4)CC3)cnc2N2CCC[C@@H]12` [Compound 40, (S)-3-((4-(4-iodophenyl)piperazin-1-yl)methyl)-6a,7,8,9-tetrahydropyrido[3,2-e]pyrrolo[1,2-a]pyrazin-6(5H)-one], the PF50 was over 10.
In the case of `O=C1Nc2cc(CN3CCN(c4nc5ccccc5o4)CC3)cnc2N2CCC[C@@H]12` [Compound 41, (S)-3-((4-(benzo[d]oxazol-2-yl)piperazin-1-yl)methyl)-6a,7,8,9-tetrahydropyrido[3,2-e]pyrrolo[1,2-a]pyrazin-6(5H)-one], the PF50 entry was “≧0”.
As for `O=C1Nc2cc(CN3CCN(c4cc(F)cc(F)c4)CC3)cnc2N2CCC[C@@H]12` [Compound 46, (S)-3-((4-(3,5-difluorophenyl)piperazin-1-yl)methyl)-6a,7,8,9-tetrahydropyrido[3,2-e]pyrrolo[1,2-a]pyrazin-6(5H)-one], the PF50 entry is given as “≧0”.
For the compound `O=C1Nc2cc(CN3CCN(c4ccc(C(F)(F)F)cc4)CC3)cnc2N2CCC[C@@H]12` [Compound 48, (S)-3-((4-(4-(trifluoromethyl)phenyl)piperazin-1-yl)methyl)-6a,7,8,9-tetrahydropyrido[3,2-e]pyrrolo[1,2-a]pyrazin-6(5H)-one], the PF50 result is reported as “≧0”.
On to `O=C1Nc2cc(CN3CC=C(c4ccc(Cl)cc4)CC3)cnc2N2CCC[C@H]12` [Compound 49, (R)-3-((4-(4-chlorophenyl)-5,6-dihydropyridin-1(2H)-yl)methyl)-6a,7,8,9-tetrahydropyrido[3,2-e]pyrrolo[1,2-a]pyrazin-6(5H)-one], for which the PF50 entry is “≧0”.
In the case of `O=C1Nc2cc(CN3CCN(c4ccc(Cl)cc4)CC3)cnc2N2CCC[C@H]12` [Compound 50, (R)-3-((4-(4-chlorophenyl)piperazin-1-yl)methyl)-6a,7,8,9-tetrahydropyrido[3,2-e]pyrrolo[1,2-a]pyrazin-6(5H)-one], the PF50 result is “≧0”.
Consider `O=C1Nc2cc(CN3CCC(c4ccc(Cl)cc4)CC3)cnc2N2CCC[C@H]12` [Compound 51, (R)-3-((4-(4-chlorophenyl)piperidin-1-yl)methyl)-6a,7,8,9-tetrahydropyrido[3,2-e]pyrrolo[1,2-a]pyrazin-6(5H)-one], for which the PF50 result is on record as “≧0”.
For `CC(C)NC(=O)c1ccc(N2CCN(Cc3cnc4c(c3)NC(=O)[C@@H]3CCCCN43)CC2)nc1` [Compound 76, (S)—N-isopropyl-6-(4-((6-oxo-6,6a,7,8,9,10-hexahydro-5H-dipyrido[1,2-a:3′,2′-e]pyrazin-3-yl)methyl)piperazin-1-yl)nicotinamide], the PF50 entry is “≧0”.
For `CCNC(=O)c1ccc(N2CCN(Cc3cnc4c(c3)NC(=O)[C@@H]3CCCCN43)CC2)nc1` [Compound 78, (S)—N-ethyl-6-(4-((6-oxo-6,6a,7,8,9,10-hexahydro-5H-dipyrido[1,2-a:3′,2′-e]pyrazin-3-yl)methyl)piperazin-1-yl)nicotinamide], the PF50 was over 10.
Turning to `O=C(NC1CC1)c1ccc(N2CCN(Cc3cnc4c(c3)NC(=O)[C@@H]3CCCCN43)CC2)nc1` [Compound 79, (S)—N-cyclopropyl-6-(4-((6-oxo-6,6a,7,8,9,10-hexahydro-5H-dipyrido[1,2-a:3′,2′-e]pyrazin-3-yl)methyl)piperazin-1-yl)nicotinamide], the PF50 is listed as over 10.
